The source of these data is patent publication US20240226105A1 (priority 2021, published 2024).

Data set [1] is classed as physicochemical.
The format of data set [2] is physicochemical. The source holds these as a separate data set.
The format of data set [3] is physicochemical. This is another data set of the same source.
The format of data set [4] is physicochemical. The source holds these as a separate data set.
Data set [5] is classed as physicochemical. Conditions: pH 4.
Data set [6] is classed as physicochemical. The source holds these as a separate data set.
Data set [7] is classed as physicochemical. The source holds these as a separate data set.
For data set [8] the following is noted: cited from earlier work.

“Also recorded” adds a separate entry of the source. Read-outs that look alike come from different tables or passages of the source.

The pKa is the pH at which an ionisable group is half protonated. `N=C1NC(O)C2C3OC4(O)O[C@@H](C(O)C2(N1)[C@@H]4O)C3(O)CO` (stereo partly shown) [TTX, octahydro-12-(hydroxymethyl)-2-imino-5,9:7,10a-dimethano-10aH-(1,3)dioxocino(6,5-d)-pyrimidine-4,7,10,11,12-pentanol]: the “solubility of TTX in a combination of organic solvents and acids” value in data set [1] is listed as “below 30 μg/ml”. The “TTX Solubility” value in data set [1] (pH 3.7) and in data set [1] (pH 4.6) was “Not soluble” in each case. Further, the “TTX solubility (observation)” value in data set [2] is recorded as “Deposits in the vial; also recorded: Partially solubilized; also recorded: Almost fully solubilized”. Besides, the “concentration at which TTX was found to be solubilized” value in data set [3] and in data set [4] was 300 µg/mL throughout. Further, in data set [5], the “concentration up to which TTX was sufficiently soluble” value is ≥ 300 µg/mL. Besides, the “concentration up to which TTX was soluble” value in data set [6] is “about 150 ug/mL”. The “solubility of TTX in pure organic solvents” value in data set [7] is “below 30 μg/ml”. Moreover, the pKa in data set [8] is 9.4.
